Where two headings read alike, the source gives them in different places.
Columns and labels:
[1] = tested on: HNSCC PDX tumors lacking amplified LZK; assay: HNSCC PDX mouse models that lack amplified LZK; assay type: in vivo; conditions: 50 mg/kg, q.d., five days on/two days off
BEAS-2B cells = assay: Colony formation assay; assay type: cell-based, human; conditions: 200 nM, 14 days, cells lacking amplified MAP3K13
Method: (§1) Crystal violet assays were used to assess relative cell growth and survival after treatment with specific compounds. In general, cells were plated in triplicate in 12-well plates for 24 hours before drug treatments were added using 10% FBS media. The plates were incubated for 14 days, with the media and drug being replaced every 48 hours. The cells were then washed with phosphate-buffered saline and fixed in ice-cold methanol before being stained with 0.5% crystal violet (Sigma-Aldrich) in 25% methanol. Images were taken using a ChemiDoc MP Imaging System (Bio Rad), and for quantification, the crystal violet stain was dissolved in 33% acetic acid, incubated for 20 minutes with shaking, and read at 595 nm using iMark™ Microplate Absorbance Reader (Bio-Rad). Graphs display percent colony formation relative to the DMSO-treated control sample.

[2] = tested on: 3q-amplified HNSCC PDX tumors; assay: HNSCC PDX mouse model with amplified MAP3K13 (LZK); assay type: in vivo
Method: Tumor pieces at approximately 2×2×2 mm^3 from an HNSCC patient containing amplified MAP3K13 were implanted subcutaneously with Matrigel (Corning) in the mice according to the SOP50101 Implantation and Cryopreservation of Tissue for PDX Generation protocol from the NIH Patient-Derived Models Repository (PDMR). Five NSG mice were used for initial implantation of the cryopreserved tumor fragments. Body weights and tumor size were measured twice weekly. […] For the efficacy study, passage one of the fresh PDX tumor fragments were implanted into NSG mice using the protocol stated previously. […] Body weights and tumor sizes were measured twice weekly. At the endpoint of each study, tumors were harvested, cleaned, weighed, and photographed for analysis.

c-MYC = assay: Western blot of c-MYC abundance; assay type: cell-based
Method: (§2) Generally, cells were plated in six-well or 35-mm plates for 24 hours, after which doxycycline was added or treatment with specific inhibitor was administered using 5% FBS media for 48 hours. After appropriate treatment time, cells were washed with ice-cold phosphate-buffered saline without Ca and Mg (Quality Biological) and then lysed on ice with RIPA buffer ([…], 1.0% IGEPAL® CA-630, 0.5% sodium deoxycholate, 0.1% SDS, 50 mM Tris, pH 8.0) (Sigma-Aldrich) supplemented with protease inhibitor tablet (Sigma-Aldrich) and phosphatase inhibitor cocktails 2 and 3 (Sigma-Aldrich) followed by centrifugation at 15,000 rpm for 10 minutes at 4° C. Protein concentrations were determined from the cell lysate by using 660 nm Protein Assay Reagent (Pierce). Cell extracts were denatured, subjected to SDS-PAGE, transferred to PVDF membranes (Bio-Rad) and blocked for 2 hours using 5% bovine serum albumin (BSA) in phosphate-buffered saline and 0.1% Tween® 20 (PBS-T). The membranes were incubated with the specific antibodies overnight in 5% BSA/PBST at 4° C. followed by a 1 hour incubation with the appropriate horseradish peroxidase-conjugated secondary antibodies and signal was detected by chemiluminescence (Thermo Fisher).

LZK [3] = assay: Immunoblot of JNK signaling in 293T cells overexpressing LZK; assay type: cell-based; conditions: one-hour treatment
Method: LZK cDNA was prepared from RNA extracted from 293T cells, attB flanking regions were added by PCR, and the BP Clonase reaction was used to insert LZK into pDONR221. From here, the Invitrogen Gateway system was used for cloning into destination vectors. FLAG-tagged (pReceiver-M12, GeneCopoeia) destination vector was conveed into Gateway destination vector for use in transient overexpression assays. The pLenti6.3/TO/V5-DEST vector was used to generate stable overexpression. The drug-resistant construct for LZK was a Q240S mutation that was introduced using a Site-Directed Mutagenesis Kit (Stratagene). The oligonucleotides are listed below in Table 18. 293T cells were transiently transfected using Lipofectamine 2000 (Invitrogen), according to the manufacturer's protocol, with OptiMEM (Gibco). […]
Generally, cells were plated in six-well or 35-mm plates for 24 hours, after which doxycycline was added or treatment with specific inhibitor was administered using 5% FBS media for 48 hours. […] Protein concentrations were determined from the cell lysate by using 660 nm Protein Assay Reagent (Pierce). […] The membranes were incubated with the specific antibodies overnight in 5% BSA/PBST at 4° C. followed by a 1 hour incubation with the appropriate horseradish peroxidase-conjugated secondary antibodies and signal was detected by chemiluminescence (Thermo Fisher).

CAL33 xenografts = assay: HNSCC CAL33 xenograft mouse model; conditions: 100 mg/kg
LZK [4] = biological target: T1, LZK (Homo sapiens (Human), UniProt O43283); assay: Immunoblot of downstream JNK phosphorylation in CAL33 cells with dox-inducible LZK; assay type: cell-based
T1 sequence (O43283 whole entry): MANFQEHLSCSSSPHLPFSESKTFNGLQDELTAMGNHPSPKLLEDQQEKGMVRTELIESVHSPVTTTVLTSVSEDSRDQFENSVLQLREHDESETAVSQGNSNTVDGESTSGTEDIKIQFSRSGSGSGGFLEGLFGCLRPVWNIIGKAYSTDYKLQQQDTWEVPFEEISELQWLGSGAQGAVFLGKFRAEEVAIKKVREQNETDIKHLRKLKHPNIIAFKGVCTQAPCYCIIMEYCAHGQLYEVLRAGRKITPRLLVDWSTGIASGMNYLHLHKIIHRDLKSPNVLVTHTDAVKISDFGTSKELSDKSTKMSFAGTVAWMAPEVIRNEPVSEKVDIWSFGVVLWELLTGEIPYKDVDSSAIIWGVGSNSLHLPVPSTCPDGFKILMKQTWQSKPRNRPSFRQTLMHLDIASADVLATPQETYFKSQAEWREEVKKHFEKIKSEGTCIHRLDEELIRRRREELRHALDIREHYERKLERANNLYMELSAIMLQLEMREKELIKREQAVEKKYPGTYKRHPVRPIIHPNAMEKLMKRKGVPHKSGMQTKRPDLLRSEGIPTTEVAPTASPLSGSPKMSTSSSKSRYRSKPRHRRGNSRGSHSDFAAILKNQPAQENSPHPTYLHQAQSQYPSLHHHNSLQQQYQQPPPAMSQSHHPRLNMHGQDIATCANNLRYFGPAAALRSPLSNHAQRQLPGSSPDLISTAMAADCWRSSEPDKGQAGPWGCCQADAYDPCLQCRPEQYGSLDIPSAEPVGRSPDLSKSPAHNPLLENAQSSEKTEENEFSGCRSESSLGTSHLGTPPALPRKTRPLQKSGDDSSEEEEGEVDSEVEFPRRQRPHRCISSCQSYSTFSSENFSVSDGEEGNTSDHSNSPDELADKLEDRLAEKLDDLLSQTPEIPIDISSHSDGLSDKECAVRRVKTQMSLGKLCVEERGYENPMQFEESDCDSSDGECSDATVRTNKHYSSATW
Method: (§3) The ViraPower HiPerform T-REx Gateway Expression System (Invitrogen) was used to generate cells with tetracycline-inducible expression of LZK. […] Cell lines were generated by antibiotic selection (blasticidin [Gibco] and geneticin [Gibco]). Doxycycline (Sigma-Aldrich) was used at 1 μg/mL to induce LZK expression.
as §2, with “After” for “Generally, cells were plated in six-well or 35-mm plates for 24 hours, after which doxycycline was added or treatment with specific inhibitor was administered using 5% FBS media for 48 hours. After”

LZK [5] = biological target: LZK (Homo sapiens, UniProt O43283, Q240S); assay: as above; assay type: cell-based; conditions: in the presence of inhibitor
Chain of LZK (Homo sapiens, UniProt O43283, Q240S) (O43283 whole entry Q240S): as the sequence (O43283 whole entry) above, with Q240S counted along it
Method: as §3
as §2, with “After” for “Generally, cells were plated in six-well or 35-mm plates for 24 hours, after which doxycycline was added or treatment with specific inhibitor was administered using 5% FBS media for 48 hours. After”

BICR56 cells [6] = assay: MTS cell viability assay; assay type: cell-based; conditions: 72 hours MTS
Method: A Cell Titer 96 AQueous One Solution Cell Proliferation Assay (Promega) was used for MTS assays following the manufacturer's protocol. […] MTS was added, cells were incubated for two hours, and absorbance was measured at 490 nm using iMark™ Microplate Absorbance Reader (Bio-Rad). Graphs display percent cell viability relative to the DMSO-treated control sample. EC50 values were determined using GraphPad Prism 8.

BICR56 cells [7] = assay: Colony formation assay; assay type: cell-based; conditions: 200 nM, 14 days
Method: as §1

NCI-H520 cells = assay: Colony formation assay; assay type: cell-based; conditions: 500 nM
Method: as §1

CAL33 cells = assay: Colony formation assay; assay type: cell-based; conditions: 200 nM, 14 days
Method: as §1

LK2 cells = assay: Colony formation assay; assay type: cell-based; conditions: 500 nM
Method: as §1

MSK921 cells = assay: Colony formation assay; assay type: cell-based; conditions: 200 nM, 14 days, cells lacking amplified MAP3K13
Method: as §1

[8] = tested on: ESCC with the 3q amplicon (KYSE30, and KYSE70 cells); assay: MTS assay in ESCC cells; assay type: cell-based; conditions: compared to control ESCC cells lacking amplified LZK (KYSE410 and OE19)
Method: A Cell Titer 96 AQueous One Solution Cell Proliferation Assay (Promega) was used for MTS assays following the manufacturer's protocol. […] Doxycycline was added where appropriate, and cells were incubated for 72 hours. MTS was added, cells were incubated for two hours, and absorbance was measured at 490 nm using iMark™ Microplate Absorbance Reader (Bio-Rad). Graphs display percent cell viability relative to the DMSO-treated control sample. EC50 values were determined using GraphPad Prism 8.

LZK [9] = biological target: T1, LZK; assay: In vitro kinase assay, LZK phosphorylation of MKK7; assay type: biochemical
Method: The assay was performed with 100 μM ATP at 37° C. for 30 minutes. Following the addition of 4× reducing SDS sample buffer, proteins were resolved by sodium dodecyl sulfate-polyacrylamide gel electrophoresis (SDS-PAGE) and immunoblot analysis was performed as stated previously.

LZK [10] = biological target: T1, LZK; assay: Phospho-JNK ELISA in doxycycline-induced CAL33 cells expressing LZK; assay type: cell-based
Source text: The ViraPower HiPerform T-REx Gateway Expression System (Invitrogen) was used to generate cells with tetracycline-inducible expression of LZK. In brief, wild-type (WT) or drug-resistant mutant (Q240S) LZK (cloned into pLenti6.3/TO/V5-DEST vector) and pLenti3.3/TR (for tetracycline repressor expression) were transfected into 293FT cells using Lipofectamine 2000 to generate lentiviral stock. Cell lines were generated by antibiotic selection (blasticidin [Gibco] and geneticin [Gibco]). Doxycycline (Sigma-Aldrich) was used at 1 μg/mL to induce LZK expression.
A PathScan® Phospho-SAPK/JNK (Thr183/Tyr185) Sandwich ELISA Assay (Cell Signaling Technology) was used for ELISA assays following the manufacturer's protocol. In general, 500,000 cells were plated and treated with doxycycline the following day where appropriate and incubated at 37° C. for 48 hours. Cells were treated with the drug compound or control in 5% FBS media for 1 hour. After appropriate treatment time, cells were lysed on ice with 1× Cell Lysis Buffer (Cell Signaling Technology) supplemented with phosphatase and protease inhibitors (Sigma). Each diluted cell lysate was added to Phospho-SAPK/JNK (Thr183/Tyr185)Rabbit mAb Coated microwells in triplicate and incubated overnight at 4° C. Samples were treated with the following antibodies and incubated at 37° C. for 1 hour and 30 minutes, respectively: Detection Antibody and HRP-Linked secondary antibody. Samples were washed between treatments using 1× Wash Buffer according to the manufacturer's protocol. TMB substrate was added to each well and incubated at 37° C. for 10 minutes. Following this, STOPsolution was added to each well and absorbance was measured at 450 nm using iMark™ Microplate Absorbance Reader (Bio-Rad). Graphs display relative phospho-JNK levels.

LZK [11] = biological target: T1, LZK; assay: KD determination, Eurofins DiscoveRx Kd-Elect; assay type: binding
Method: (§4) Substituents were varied to improve binding affinity to LZK and selectivity over DLK. KD values were measured by Eurofins DiscoveRx using the Kd-Elect system. Parallel artificial membrane permeability assay (PAMPA) values were measured by Cyprotex.
(§5) KD values were calculated with a standard dose-response curve using the Hill equation: […]
(§6) The Hill Slope was set to −1. Curves were fitted using a non-linear least square fit with the Levenberg-Marquardt algorithm.

DLK = DLK (Homo sapiens (Human), UniProt Q12852); assay: KD determination, Eurofins DiscoveRx Kd-Elect; assay type: binding
Chain of DLK (Q12852 whole entry): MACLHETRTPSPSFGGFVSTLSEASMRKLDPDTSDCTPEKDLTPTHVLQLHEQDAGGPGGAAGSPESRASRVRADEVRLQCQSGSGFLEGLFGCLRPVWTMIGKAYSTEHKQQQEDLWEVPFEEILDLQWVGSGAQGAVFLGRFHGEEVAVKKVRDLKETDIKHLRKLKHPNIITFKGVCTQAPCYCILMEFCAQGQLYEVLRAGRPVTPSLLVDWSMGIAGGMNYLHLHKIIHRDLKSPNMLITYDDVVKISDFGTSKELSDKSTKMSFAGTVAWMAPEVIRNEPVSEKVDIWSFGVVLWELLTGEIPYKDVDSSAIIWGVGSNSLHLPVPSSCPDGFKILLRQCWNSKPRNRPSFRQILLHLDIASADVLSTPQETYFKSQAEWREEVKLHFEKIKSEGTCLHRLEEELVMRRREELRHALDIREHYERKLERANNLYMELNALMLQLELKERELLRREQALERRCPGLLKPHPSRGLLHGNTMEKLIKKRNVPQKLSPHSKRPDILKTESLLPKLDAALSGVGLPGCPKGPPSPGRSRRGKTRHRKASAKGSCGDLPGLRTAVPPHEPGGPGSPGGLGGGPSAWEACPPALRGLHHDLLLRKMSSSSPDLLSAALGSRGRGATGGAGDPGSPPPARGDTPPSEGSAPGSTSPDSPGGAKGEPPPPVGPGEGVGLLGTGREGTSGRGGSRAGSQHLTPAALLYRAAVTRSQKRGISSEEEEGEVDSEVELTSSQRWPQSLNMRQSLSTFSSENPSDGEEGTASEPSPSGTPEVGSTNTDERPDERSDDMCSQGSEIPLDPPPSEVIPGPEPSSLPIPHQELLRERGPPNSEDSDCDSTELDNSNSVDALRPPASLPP
Method: as §4, §5, §6

[12] = tested on: ESCC cells with the 3q amplicon; assay: Colony formation assay in ESCC cells; assay type: cell-based; conditions: drug resistant mutant form of LZK
Source text: Crystal violet assays were used to assess relative cell growth and survival after treatment with specific compounds. […] Graphs display percent colony formation relative to the DMSO-treated control sample.

OVCAR5 cells = assay: Colony formation assay; assay type: cell-based
Method: as §1

[13] = b.i.d., five days on/two days off

N#Cc1ccnc(Nc2cc(C3CCN(C4COC4)CC3)cc(N3CCC(F)(F)C3)n2)c1 [GNE-3511]
tumor volumes [1]: no decrease in tumor volumes
reduction in colony formation (BEAS-2B cells): minor reduction in colony formation
body weights of the mice ([2]; 50 mg/kg daily): no effect on body weights
mice with no detectable tumors ([2]; 50 mg/kg, n=10): 3 mice
tumor growth ([2]; 50 mg/kg, q.d., five days on/two days off): significantly suppress HNSCC tumor growth in vivo with almost complete tumor regression
c-MYC levels with LZK^Q240S expression (c-MYC; CAL33 cells treated with inhibitor): rescued loss in c-MYC levels
c-MYC levels (c-MYC; CAL33 cells, 500 nM, within the first hour, maintained for 72 hours): reduction in c-MYC levels
specificity of LZK inhibition (rescue of JNK signaling by LZK^Q240S) (LZK [3]): specifically inhibits LZK
cleaved caspase-3 expression (IHC) in tumors (CAL33 xenografts): increase in cleaved caspase-3 expression
tumor growth (CAL33 xenografts): tumor growth was suppressed
body weight (CAL33 xenografts; [13]): decreases in body weight
toxicity (CAL33 xenografts; [13]): terminated early due to toxicity
duration of JNK pathway inactivation (LZK [4]; 250 nM): up to 72 hours
time at which LZK activity toward JNK was inhibited (LZK [4]; 250 nM): ≤ 15 min
inhibition of LZK activity in cells (downstream JNK phosphorylation) (LZK [4]; Western blot): potent LZK inhibitor in cells
JNK signaling with LZK^Q240S drug-resistant mutant expression (LZK [5]): maintained catalytic activity
IC50 (BICR56 cells [6]): 410 ± 59.6 nM
reduction in colony formation (BICR56 cells [7]): ≥ 80%
reduction in colony formation (NCI-H520 cells): 55%
reduction in colony formation (CAL33 cells): ≥ 80%
reduction in colony formation (LK2 cells): 45%
reduction in colony formation (MSK921 cells): minor reduction in colony formation
sensitivity (viability) [8]: sensitive
in vitro phosphorylation of MKK7 (LZK [9]): decreased in vitro phosphorylation of MKK7

Cc1cnc(Nc2cc(C3CCN(CC4CC4)CC3)cc(N3CCC(F)(F)C3)n2)cn1 [compound 161]
dose-dependent inhibition of LZK (LZK [10]): dose-dependent inhibition
Ratio (LZK/DLK) (LZK [11]; ratio of LZK Kd to DLK Kd): 0.8
Kd (LZK [11]; read-out: Kd values): 3.3 nM
Kd (LZK [11]; read-out: LZK KD): 3.3 nM
Kd (DLK): 4.3 nM
sensitivity (colony formation) of ESCC cells expressing LZK^Q240S [12]: resistant to compound 161
sensitivity (colony formation) (OVCAR5 cells): sensitive

Reference: patent US20250032489A1, “MIXED LINEAGE KINASE INHIBITORS AND METHODS OF USE” (The U.S.A., as represented by the Secretary, Department of …, priority 2022, published 2025)
